{
  "source": "BindingDB's records for doi:10.7270/Q280511V",
  "about": "(University of Pittsburgh, 2008)",
  "data": [
    {"target": "Serine/threonine-protein kinase PLK1 (Homo sapiens, UniProt P53350)", "sequence (P53350 whole entry, the tested form may be a part)": "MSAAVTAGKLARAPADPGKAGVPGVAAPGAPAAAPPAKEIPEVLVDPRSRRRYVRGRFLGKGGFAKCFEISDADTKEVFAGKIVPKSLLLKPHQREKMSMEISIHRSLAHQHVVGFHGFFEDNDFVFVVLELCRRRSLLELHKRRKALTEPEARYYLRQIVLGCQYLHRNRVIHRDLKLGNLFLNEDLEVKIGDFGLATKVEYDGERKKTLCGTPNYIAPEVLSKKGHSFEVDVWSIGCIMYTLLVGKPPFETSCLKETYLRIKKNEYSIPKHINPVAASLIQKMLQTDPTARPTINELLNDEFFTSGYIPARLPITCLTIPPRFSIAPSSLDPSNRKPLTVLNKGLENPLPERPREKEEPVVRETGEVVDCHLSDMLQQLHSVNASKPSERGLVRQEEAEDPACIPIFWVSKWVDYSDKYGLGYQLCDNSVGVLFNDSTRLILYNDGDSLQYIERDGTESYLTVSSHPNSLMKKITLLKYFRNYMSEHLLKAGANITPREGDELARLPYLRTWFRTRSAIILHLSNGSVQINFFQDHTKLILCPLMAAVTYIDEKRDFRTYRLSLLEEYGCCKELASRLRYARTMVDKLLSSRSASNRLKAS", "experiment": "PLK1 polo-box domain peptide-binding inhibitors, SAR follow-up, biochemical, fluorescence polarization, synthesized analogs, concentration response (AID 1057)", "units": {"IC50": "µM"}, "values": [
      {"molecule": "CCOC(=O)c1ccc(NC(=O)c2c(O)[nH]c(=O)[nH]c2=O)cc1", "IC50": "> 50"},
      {"molecule": "CCOC(=O)c1ccc(NS(=O)(=O)c2c(N)n(C)c(=O)n(C)c2=O)cc1", "note": "[4-[(4-amino-1,3-dimethyl-2,6-dioxo-5-pyrimidinyl)sulfonylamino]benzoic acid ethyl ester]", "IC50": "> 50"},
      {"molecule": "CCCCOC(=O)c1ccc(NC(=O)c2c(N)n(C)c(=O)[nH]c2=O)cc1", "note": "[4-[[(6-amino-1-methyl-2,4-dioxo-5-pyrimidinyl)-oxomethyl]amino]benzoic acid butyl ester]", "IC50": "> 50"},
      {"molecule": "CCOC(=O)c1ccc(NC(=O)c2c(N)n(C)c(=O)[nH]c2=O)cc1", "note": "[UPDDI-00294856]", "IC50": "> 50"},
      {"molecule": "CCOc1ccc(NC(=O)c2c(O)[nH]c(=O)[nH]c2=O)cc1", "note": "[N-(4-ethoxyphenyl)-6-hydroxy-2,4-dioxo-1H-pyrimidine-5-carboxamide]", "IC50": "> 50"},
      {"molecule": "CCOC(=O)c1ccc(NC(=O)c2c(N)n(C)c(=O)n(C)c2=O)cc1", "note": "[4-[(4-amino-2,6-diketo-1,3-dimethyl-pyrimidine-5-carbonyl)amino]benzoic acid ethyl ester]", "IC50": "> 50"},
      {"molecule": "CCOC(=O)c1cccc(NC(=O)c2c(NCc3ccccc3)[nH]c(=O)[nH]c2=O)c1", "note": "[ethyl 3-[[2,4-bis(oxidanylidene)-6-[(phenylmethyl)amino]-1H-pyrimidin-5-yl]carbonylamino]benzoate]", "IC50": "> 50"},
      {"molecule": "CCOC(=O)c1ccc(NC(=O)c2c(NCc3ccccc3)[nH]c(=O)[nH]c2=O)cc1", "note": "[UPDDI-00398618]", "IC50": "> 50"},
      {"molecule": "CCOc1ccc(NC(=O)c2ccc(F)cc2F)cc1", "note": "[2,4-difluoro-N-p-phenetyl-benzamide]", "IC50": "> 50"},
      {"molecule": "O=C(Nc1ccccc1)c1c(O)[nH]c(=S)[nH]c1=O", "IC50": "> 50"},
      {"molecule": "CCOC(=O)c1ccc(NC(=O)c2ccc(F)cc2F)cc1", "note": "[4-[(2,4-difluorobenzoyl)amino]benzoic acid ethyl ester]", "IC50": "> 50"},
      {"molecule": "Cn1c(N)c(C(=O)Nc2ccccc2)c(=O)[nH]c1=O", "note": "[UPDDI-00398616]", "IC50": "> 50"},
      {"molecule": "CCCCOC(=O)c1ccc(NC(=O)c2c(O)[nH]c(=O)[nH]c2=O)cc1", "note": "[4-[[(6-hydroxy-2,4-dioxo-1H-pyrimidin-5-yl)-oxomethyl]amino]benzoic acid butyl ester]", "IC50": "> 50"},
      {"molecule": "CCOC(=O)c1ccccc1NC(=O)c1c(O)[nH]c(=O)[nH]c1=O", "IC50": "> 50"},
      {"molecule": "CC(NNC(=O)c1ccncc1)=C1C(=O)NC(=O)NC1=O", "IC50": "> 50"},
      {"molecule": "Cc1ccc(NC(=O)c2ccc(F)cc2F)cc1", "note": "[2,4-bis(fluoranyl)-N-(4-methylphenyl)benzamide]", "IC50": "> 50"},
      {"molecule": "CCOC(=O)c1ccc(NC(=O)c2c(N)n(Cc3ccccc3)c(=O)[nH]c2=O)cc1", "note": "[ethyl 4-[(6-amino-1-benzyl-2,4-dioxopyrimidine-5-carbonyl)amino]benzoate]", "IC50": "> 50"},
      {"molecule": "CCCCOC(=O)c1ccc(NC(=O)c2ccc(F)cc2F)cc1", "note": "[4-[(2,4-difluorobenzoyl)amino]benzoic acid butyl ester]", "IC50": "> 50"},
      {"molecule": "CCOC(=O)c1cccc(NC(=O)c2ccc(F)cc2F)c1", "note": "[3-[(2,4-difluorobenzoyl)amino]benzoic acid ethyl ester]", "IC50": "> 50"},
      {"molecule": "Cn1c(N)c(S(=O)(=O)NCc2ccccc2)c(=O)n(C)c1=O", "note": "[4-amino-1,3-dimethyl-2,6-dioxo-N-(phenylmethyl)-5-pyrimidinesulfonamide]", "IC50": "> 50"},
      {"molecule": "CCOC(=O)c1ccccc1NC(=O)c1c(N)n(C)c(=O)[nH]c1=O", "note": "[ethyl 2-[[6-azanyl-1-methyl-2,4-bis(oxidanylidene)pyrimidin-5-yl]carbonylamino]benzoate]", "IC50": "> 50"},
      {"molecule": "O=C(Nc1ccccc1)c1c(O)[nH]c(=O)[nH]c1=O", "IC50": "> 50"},
      {"molecule": "CCOC(=O)c1ccccc1NC(=O)c1c(O)[nH]c(=S)[nH]c1=O", "IC50": "> 50"},
      {"molecule": "Cc1cccc(NNC=C2C(=O)NC(=S)NC2=O)c1", "note": "[5-[[2-(3-methylphenyl)hydrazinyl]methylidene]-2-sulfanylidene-1,3-diazinane-4,6-dione]", "IC50": "> 50"},
      {"molecule": "CCOC(=O)c1ccccc1NC(=O)c1ccc(F)cc1F", "note": "[2-[(2,4-difluorobenzoyl)amino]benzoic acid ethyl ester]", "IC50": "> 50"},
      {"molecule": "CCOC(=O)c1cccc(NC(=O)c2c(O)[nH]c(=O)[nH]c2=O)c1", "note": "[3-[[(6-hydroxy-2,4-dioxo-1H-pyrimidin-5-yl)-oxomethyl]amino]benzoic acid ethyl ester]", "IC50": "> 50"},
      {"molecule": "CCOC(=O)c1cccc(NC(=O)c2c(N)n(C)c(=O)[nH]c2=O)c1", "note": "[UPDDI-00398617]", "IC50": "> 50"},
      {"molecule": "CCOC(=O)CCCCCNC(=O)C1C(=O)NC(=O)NC1=O", "note": "[6-[[hydroxy-(2,4,6-triketohexahydropyrimidin-5-ylidene)methyl]amino]hexanoic acid ethyl ester]", "IC50": "> 50"},
      {"molecule": "CCOc1ccc(NC(=O)c2c(N)n(C)c(=O)[nH]c2=O)cc1", "IC50": "> 50"},
      {"molecule": "CCOC(=O)CCCCCNC(=O)c1ccc(F)cc1F", "note": "[6-[(2,4-difluorobenzoyl)amino]hexanoic acid ethyl ester]", "IC50": "> 50"},
      {"molecule": "O=C(Nc1ccccc1)c1ccc(F)cc1F", "note": "[2,4-bis(fluoranyl)-N-phenyl-benzamide]", "IC50": "> 50"}
    ]}
  ]
}
